According to US5079252A, “Therapeutic compounds” (priority 1988, dated 1992):
Read-outs that look alike come from different tables or passages of the source.

Tests used:
[1] = test system: herpes viruses; conditions: cited from earlier work
[2] = cited from earlier work
[3] = test system: Herpes Simplex Virus (HSV 1); experiment: HSV 1 plaque reduction assay in Vero cell monolayers; format: cell-based; conditions: read-out: 50% inhibitory concentration (IC50)
Experimental: Herpes Simplex Virus (HSV 1) was assayed in monolayers of Vero cells in multiwell trays. Activity of compounds was determined in the plaque reduction assay, in which a cell monolayer was infected with a suspension of HSV 1, and then overlaid with nutrient agarose in the form of a gel to ensure that there was no spread of virus throughout the culture. A range of concentrations of compound of known molarity was incorporated in the nutrient agarose overlay. Plaque numbers at each concentration are expressed as percentages of the control and a dose-response curve was drawn. From this curve the 50% inhibitory concentration (IC50) was estimated.

[4] = background statement; cited from earlier work
[5] = Oral bioavailability in rats: urinary recovery as acyclovir after oral administration (gavage); format: in vivo, Long Evans Rates (rats)
Experimental: Long Evans Rates are administered the compound to be tested by gavage at a dose equivalent to 25 mg/kg acyclovir. The urine is collected for 24 and 48 hours post-dose, ultrafiltered, and analysed by reverse-phase high-pressure liquid chromatography. The oral bioavailability of the compound is expressed as the percent of the dose excreted in the urine as acyclovir.

[6] = Plasma levels of acyclovir after oral administration in animals; format: in vivo

Row | SMILES | antiviral activity, particularly against herpes viruses [1] | solubility in water [2] | IC50 ([3]; Vero) [nM] | absorption from the gastrointestinal tract after oral administration [4] | bioavailability compared with acyclovir or the esters disclosed in UK 1523865 and 1561380 ([5]; oral) | Urinary Recovery (% of dose) as acyclovir ([5]; rats, gavage, dose equivalent to 25 mg/kg acyclovir, urine 24 and 48 hours post-dose) | IC50 ([3]; HSV 1, Vero cells, plaque reduction) [nM] | levels of acyclovir in the plasma [6]
1 | Nc1nc2c(ncn2COCCO)c(=O)[nH]1 [Acyclovir, 9-(2-Hydroxyethoxymethyl)guanine] | potent antiviral activity | poorly soluble | ~100 | only poorly absorbed | – | – | – | –
2 | CCCCC(=O)OCCOCn1cnc2c(=O)[nH]c(N)nc21 [Example A, 9-(2-valeryloxyethoxymethyl)guanine] | – | – | – | – | improved bioavailability | 34 % of dose | 200 | measurable levels of acyclovir in the plasma
